Assay results from paper PMC10139140, “Synthesis of Novel 2-(Cyclopentylamino)thiazol-4(5H)-one Derivatives with Potential Anticancer, Antioxidant, and 11β-HSD Inhibitory Activities” (International Journal of Molecular Sciences, 2023).

Experiments:
[1] = biological target: T1, 11β-HSD1 (Homo sapiens, UniProt P28845); assay: Inhibition of 11β-HSD1 (cortisone to cortisol, human liver microsomes, cortisol ELISA); format: biochemical; conditions: for inhibition at 10 µM: 2.5 h, 37 °C
T1 construct: Human liver microsomes were used as a source of 11β-HSD1 enzyme; tissue XenoTech Lot No. 1410013; host or cells: pooled human liver microsomes, mixed gender
Outline: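 Human liver microsomal conversion of cortisone to cortisol, incubated 2.5 h at 37 °C and stopped with 18β-glycyrrhetinic acid. Cortisol was quantified by ELISA against inhibitor-free controls.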

[2] = biological target: T2, 11β-HSD2 (Homo sapiens, UniProt P80365); assay: Inhibition of 11β-HSD2 (cortisol to cortisone, human microsomes, cortisol ELISA); format: biochemical; conditions: 2.5 h, 37 °C
T2 construct: Human liver microsomes were used as a source of 11β-HSD2 enzyme; tissue XenoTech Lot No. 1710160; host or cells: human kidney microsomes, mixed gender (method text says human liver microsomes)
T2 sequence (P80365 1-405): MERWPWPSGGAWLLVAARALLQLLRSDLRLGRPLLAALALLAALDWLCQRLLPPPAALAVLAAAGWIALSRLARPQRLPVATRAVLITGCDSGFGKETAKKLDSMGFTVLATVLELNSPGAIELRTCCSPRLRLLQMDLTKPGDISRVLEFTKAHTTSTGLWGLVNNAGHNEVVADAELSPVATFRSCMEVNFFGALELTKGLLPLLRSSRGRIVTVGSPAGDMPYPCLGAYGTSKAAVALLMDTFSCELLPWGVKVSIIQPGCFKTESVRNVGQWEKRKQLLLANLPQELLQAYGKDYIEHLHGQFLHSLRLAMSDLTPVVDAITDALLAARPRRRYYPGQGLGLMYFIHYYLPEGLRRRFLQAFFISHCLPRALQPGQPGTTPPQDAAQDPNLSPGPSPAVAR
Experimental: The resulting solution with a final volume of 100 µL was incubated for 2.5 h at 37 °C. […] The level of unreacted cortisol was measured by a commercially available ELISA kit.

[3] = test system: BJ cells; assay: MTS metabolic activity assay, BJ cells; format: cell-based; conditions: Homo sapiens, 72 h, read-out: Cell metabolic activity (MTS), % of untreated control
Outline: (§1)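 Metabolic activity was measured by MTS reduction following a 72 h exposure to a range of compound concentrations. Cells had been plated 24 h beforehand at standard density, with fewer BJ cells per well. Values are percentages relative to untreated controls.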

[4] = test system: human colon carcinoma (Caco-2); assay: MTS metabolic activity assay, Caco-2 cells; format: cell-based; conditions: Homo sapiens, 72 h, read-out: Cell metabolic activity (MTS), % of untreated control; for viability at 10 µM: Caco-2, 10 µM; for viability at 20 µM: Caco-2, 20 µM; for viability at 50 µM: Caco-2, 50 µM; for viability at 100 µM: Caco-2, 100 µM; for viability at 200 µM: Caco-2, 200 µM; for viability at 300 µM: Caco-2, 300 µM; for viability at 500 µM: Caco-2, 500 µM
Outline: as §1

[5] = test system: human pancreatic carcinoma (PANC-1); assay: MTS metabolic activity assay, PANC-1 cells; format: cell-based; conditions: Homo sapiens, 72 h, read-out: Cell metabolic activity (MTS), % of untreated control; for viability at 10 µM: PANC-1, 10 µM; for viability at 20 µM: PANC-1, 20 µM; for viability at 50 µM: PANC-1, 50 µM; for viability at 100 µM: PANC-1, 100 µM; for viability at 200 µM: PANC-1, 200 µM; for viability at 300 µM: PANC-1, 300 µM; for viability at 500 µM: PANC-1, 500 µM
Outline: as §1

[6] = test system: glioma (U-118 MG); assay: MTS metabolic activity assay, U-118 MG cells; format: cell-based; conditions: 72 h; for viability at 10 µM / viability at 20 µM / viability at 50 µM / viability at 100 µM / viability at 200 µM / viability at 300 µM / viability at 500 µM: Homo sapiens, U-118-MG, U118-MG, read-out: Cell metabolic activity (MTS), % of untreated control
Outline: as §1

[7] = test system: skin melanoma (SK-MEL-30); assay: MTS metabolic activity assay, SK-MEL-30 cells; format: cell-based; conditions: Homo sapiens, 72 h, read-out: Cell metabolic activity (MTS), % of untreated control; for viability at 10 µM: SK-MEL-30, 10 µM; for viability at 20 µM: SK-MEL-30, 20 µM; for viability at 50 µM: SK-MEL-30, 50 µM; for viability at 100 µM: SK-MEL-30, 100 µM; for viability at 200 µM: SK-MEL-30, 200 µM; for viability at 300 µM: SK-MEL-30, 300 µM; for viability at 500 µM: SK-MEL-30, 500 µM
Outline: as §1

[8] = test system: human breast carcinoma (MDA-MB-231); assay: MTS metabolic activity assay, MDA-MB-231 cells; format: cell-based; conditions: Homo sapiens, 72 h, read-out: Cell metabolic activity (MTS), % of untreated control; for viability at 10 µM: MDA-MB-231, 10 µM; for viability at 20 µM: MDA-MB-231, 20 µM; for viability at 50 µM: MDA-MB-231, 50 µM; for viability at 100 µM: MDA-MB-231, 100 µM; for viability at 200 µM: MDA-MB-231, 200 µM; for viability at 300 µM: MDA-MB-231, 300 µM; for viability at 500 µM: MDA-MB-231, 500 µM
Outline: as §1

T1 sequence (P28845 whole entry): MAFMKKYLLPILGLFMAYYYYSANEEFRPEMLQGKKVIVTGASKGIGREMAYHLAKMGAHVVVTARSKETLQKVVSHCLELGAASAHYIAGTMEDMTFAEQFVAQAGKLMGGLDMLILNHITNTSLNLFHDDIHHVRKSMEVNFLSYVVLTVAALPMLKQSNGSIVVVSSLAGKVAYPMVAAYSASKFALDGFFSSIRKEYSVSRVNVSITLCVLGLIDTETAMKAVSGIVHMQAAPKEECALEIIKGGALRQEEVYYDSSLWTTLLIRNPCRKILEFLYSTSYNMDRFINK

## CC(C)C1SC(NC2CCCC2)=NC1=O (stereo not shown) [Compound 3d, 2-(cyclopentylamino)-5-isopropylthiazol-4(5H)-one]
[1]
  IC50: 460 ± 70 nM
  inhibition at 10 µM: 82.9 ± 2.62%
[2]
  inhibition at 10 µM: 38.6 ± 3.69%
[3]
  viability at 10 µM: 109%
  viability at 20 µM: 106%
  viability at 50 µM: 109%
  viability at 100 µM: 110%
  viability at 200 µM: 116%
  viability at 300 µM: 118%
  viability at 500 µM: 118%
[4]
  viability at 10 µM: 88.8%
  viability at 20 µM: 82.8%
  viability at 50 µM: 90.8%
  viability at 100 µM: 83.1%
  viability at 200 µM: 84.8%
  viability at 300 µM: 85.3%
  viability at 500 µM: 70.1%
[5]
  viability at 10 µM: 107%
  viability at 20 µM: 103%
  viability at 50 µM: 105%
  viability at 100 µM: 116%
  viability at 200 µM: 113%
  viability at 300 µM: 119%
  viability at 500 µM: 118%
[6]
  viability at 10 µM: 118%
  viability at 20 µM: 111%
  viability at 50 µM: 114%
  viability at 100 µM: 112%
  viability at 200 µM: 114%
  viability at 300 µM: 115%
  viability at 500 µM: 120%
[6]; U-118 MG, range given for the named substances together
  highest increase in proliferation (cell metabolic activity): 115 to 144%
[7]
  viability at 10 µM: 97.2%
  viability at 20 µM: 97.1%
  viability at 50 µM: 97.7%
  viability at 100 µM: 102%
  viability at 200 µM: 92.3%
  viability at 300 µM: 78.2%
  viability at 500 µM: 59.4%
[8]
  viability at 10 µM: 92.8%
  viability at 20 µM: 91.2%
  viability at 50 µM: 95.5%
  viability at 100 µM: 94.4%
  viability at 200 µM: 86.6%
  viability at 300 µM: 81.8%
  viability at 500 µM: 57.6%

## CC1(C)SC(NC2CCCC2)=NC1=O [Compound 3e, 2-(cyclopentylamino)-5,5-dimethylthiazol-4(5H)-one]
[1]
  IC50: 4400 ± 150 nM
  inhibition at 10 µM: 53.2 ± 5.22%
[2]
  inhibition at 10 µM: 36.6 ± 1.5%
[3]
  viability at 10 µM: 107%
  viability at 20 µM: 109%
  viability at 50 µM: 112%
  viability at 100 µM: 114%
  viability at 200 µM: 117%
  viability at 300 µM: 119%
  viability at 500 µM: 108%
[4]
  viability at 10 µM: 99.9%
  viability at 20 µM: 86.5%
  viability at 50 µM: 86.7%
  viability at 100 µM: 83.4%
  viability at 200 µM: 80.2%
  viability at 300 µM: 75.6%
  viability at 500 µM: 64.1%
[5]
  viability at 10 µM: 110%
  viability at 20 µM: 101%
  viability at 50 µM: 110%
  viability at 100 µM: 112%
  viability at 200 µM: 120%
  viability at 300 µM: 122%
  viability at 500 µM: 127%
[6]
  viability at 10 µM: 110%
  viability at 20 µM: 110%
  viability at 50 µM: 116%
  viability at 100 µM: 111%
  viability at 200 µM: 112%
  viability at 300 µM: 109%
  viability at 500 µM: 106%
[7]
  viability at 10 µM: 102%
  viability at 20 µM: 100%
  viability at 50 µM: 103%
  viability at 100 µM: 106%
  viability at 200 µM: 106%
  viability at 300 µM: 104%
  viability at 500 µM: 104%
[8]
  viability at 10 µM: 96.3%
  viability at 20 µM: 100%
  viability at 50 µM: 103%
  viability at 100 µM: 95.7%
  viability at 200 µM: 93.7%
  viability at 300 µM: 90.6%
  viability at 500 µM: 85.2%
